Data from ChEMBL document CHEMBL1149589, “The influence of the long chain fatty acid on the antagonistic activities of Rhizobium sin-1 lipid A” (Bioorg Med Chem, 2007).
Activity calls are given as the source filed them. The rule behind the calls is not given here.

Tested on: MONO-MAC-6
Assay: Antagonistic activity against Escherichia coli LPS-induced TNFalpha production in human Mono Mac 6 cells after 5.5 hrs
Assay type: functional, cell-based
Conditions: for IC50: Homo sapiens, MONO-MAC-6, 5.5 h

Compound	Activity	IC50 [µM]	Inhibition [%]
CCCCCCCCCCCCCC(=O)O[C@H](CCCCCCCCCCCCC)CC(=O)N[C@H]1[C@H](OC[C@H]2OC(=O)[C@H](NC(=O)C[C@H](O)CCCCCCCCCCCCC)[C@@H](OC(=O)C[C@H](O)CCCCCCCCCCCCC)[C@@H]2O)O[C@H](CO)[C@@H](O)[C@@H]1OC(=O)C[C@H](O)CCCCCCCCCCCCC	Active		
CCCCCCCCCCCCCCCCCCCCCCCCCCCC(=O)O[C@H](CCCCCCCCCCCCC)CC(=O)N[C@H]1[C@H](OC[C@H]2OC(=O)[C@H](NC(=O)C[C@H](O)CCCCCCCCCCCCC)[C@@H](OC(=O)C[C@H](O)CCCCCCCCCCCCC)[C@@H]2O)O[C@H](CO)[C@@H](O)[C@@H]1OC(=O)C[C@H](O)CCCCCCCCCCCCC		7.5	
CCCCCCCCCCCCC[C@@H](O)CC(=O)N[C@H]1C(=O)O[C@H](CO[C@@H]2O[C@H](CO)[C@@H](O)[C@H](OC(=O)C[C@H](O)CCCCCCCCCCCCC)[C@H]2NC(=O)C[C@@H](CCCCCCCCCCCCC)OC(=O)CCCCCCCCCCCCCCCCCCCCCCCCCC(C)O)[C@@H](O)[C@@H]1OC(=O)C[C@H](O)CCCCCCCCCCCCC (some centres undefined)		9.1	86
